Measurements: US20230123497A1, “NOVEL ANTIBACTERIAL HYDROGELS” (NewSouth Innovations Pty Limited, priority 2020, published 2023)
“And” between values parts separate entries of the source, which are not always exact repeats. Identical values can stand only once.

How the values were obtained:
HEK 293T cells = test: Cytotoxicity, Alamar Blue colorimetric assay; assay type: cell-based
Procedure: Cytotoxicity measurements were performed using an Alamar Blue colorimetric assay. Each experiment was repeated at least three times. Cells were passaged using standard cell culture procedures. Cells were detached with trypsin and centrifuged (1000 rpm for 3 min). The supernatant was removed and the cells re-suspended in Dulbecco's Modified Eagle Medium (DMEM) at a concentration of 100,000 cells per mL. Cells were seeded at a concentration of 6,000 cells per well. For cytotoxicity measurements, […] of hydrogel made from short-peptide 4 (at 1% w/v and 2% w/v) and short peptides 11, 12, 13, and 16 (at 0.3, 0.6, and 1.0% w/v) were added in triplicate to a 96-well plate and allowed to set overnight. Surrounding wells were supplemented with water to ensure hydration of the gels. Gels were then incubated for 24 h with DMEM. Cells were seeded atop the hydrogels and incubated for 24 hours, before […] of Alamar Blue was added to the wells, followed by further incubation for 4 h. Control wells included cell-free gels, no hydrogels and a negative control of 15% (v/v) DMSO. The absorbances at 570 nm and 596 nm were recorded using a BioRad Benchmark plate reader.

[1] = Hydrogel formation, vial inversion test (critical gel concentration); assay type: physicochemical; details: solvent switch
[2] = NO release from hydrogel 4 quantified with Griess reagent; assay type: physicochemical
Procedure: NO release from hydrogel 4 was quantified using the Griess reagent, which is an indirect method that measures collected nitrite as the primary degradation product of NO. Nitrobenzene-appended anthranilamide-based hydrogel 4 was pre-formed in an aluminium covered vial at 1% w/v (1 mL). Milli-Q water (1 mL) was carefully cast on top of the hydrogel, which was subsequently exposed to UV or blue light irradiation. At certain time points (0, 5, 15, 30, 60, and 120 min), the entire upper solutions were carefully removed and allowed to react with Griess reagent, according to the indication of the NO assay kit (Promega), to provide an azo compound that is responsible for providing the colorimetric assay. Subsequently, 1 mL of fresh Milli-Q water was immediately added to the top of hydrogel 4 for continuing the release.
Due to the strong absorbance of hydrogel 4 in the UV range, NO release was triggered by using a UV lamp (λ=356 nm). The same volume of Milli-Q water was placed on top of hydrogel 4, which was irradiated with UV light for 2 hours. The entire solution, on top of the hydrogel, was removed and replaced with the same amount of Milli-Q water periodically. The resulting solutions were reacted with Griess reagent. Any NO generated during the experiment would react with oxygen to generate nitrite ion (NO2^−). The subsequent reaction between NO2^− with Griess reagent, which contains sulfanilamide and N-(1-naphthyl)ethylenediamine (NED), will form a bright pink azo-dye compound that can be quantified using UV-Vis spectroscopy, as shown in the below scheme: […]

Solubility in water = assay type: physicochemical; details: even with vigorous heating
Procedure: Nitrobenzene-appended short peptide 4 was not soluble in water even with vigorous heating. Therefore, NaOH (2 equivalents) was added to deprotonate the carboxylic acid group at the C-terminus of short peptide 4, generating a sodium carboxylate salt with increased solubility in water. The yellow suspension of short peptide 4 was sonicated for 5 minutes after the addition of alkali, resulting is dissolution and formation of a yellow solution.

S. aureus 38 = test: Microdilution MBC of released fibers versus free compound; assay type: cell-based, Staphylococcus aureus
Procedure: To confirm their antibacterial efficacy, the released fibers from day 1 and day 9 were subjected to a standard microdilution protocol.
To further investigate their antibacterial activity, the released fibers from hydrogel 11 were tested against S. aureus 38. The solutions sampled from day 1 and day 9 were adjusted to obtained final concentrations of […]. Then, 100 μL of these solutions were transferred to a 96 well plate. […] 100 μL of each of these peptide solutions was also transferred to a 96 well plate.
Subsequently, 100 μL of a bacteria solution, adjusted to 10^6 CFUs/mL was added to each well. Two controls were used: one containing 100 μL of LB and 100 μL of PBS, and the other containing 100 μL of bacteria solution and 100 μL of PBS. The plate was then incubated at 37° C. for 24 hours. The following day, 20 μL solution from each well was subjected to a serial dilution then transferred onto agar plates followed by incubation at 37° C. for another 24 hours. MBC value was determined as the lowest concentration that inhibited S. aureus growth on the agar plate.

[3] = Release of cationic short peptide from hydrogel (UV-Vis); assay type: physicochemical; details: hydrogel 1% w/v, PBS, 37° C.
Procedure: Hydrogel 11 was made at 1% w/v with a final volume of 1 mL. The resulting hydrogel was left to stand overnight at room temperature. Phosphate buffer solution (PBS, 1 mL) was added gently from the side wall to avoid physical fractures. Subsequently, the vial was incubated at 37° C., where 1 mL of PBS was sampled at each time point and replaced with fresh PBS. Samples were subjected to 10× dilution before analysis using UV-Vis spectroscopy. This experiment was performed in triplicate.

Time (gelation time) ([1]; DMSO 5 % v/v)	Time (gelation time) ([1]; MeOH 5 % v/v)	solubility in water (Solubility in water)	peptide released from hydrogel ([3]; 24 hours)	total peptide released ([3]; over 9 days) [%]	SMILES	cell viability (HEK 293T cells; hydrogel 4 at 1% w/v, compared to the control)	cell viability (HEK 293T cells; hydrogel 4 at 2% w/v)	NO detected ([2]; hydrogel 1% w/v, UV light (λ=356 nm), 5 minutes) [µM]	NO generated ([2]; hydrogel 1% w/v, UV light (λ=356 nm), 30 minutes) [µM]	NO recovered ([2]; hydrogel 1% w/v, UV light, 2 hours) [%]	irradiation time required to generate NO concentration that can kill E. coli ([2]; hydrogel 1% w/v, blue light) [h]	total NO recovered ([2]; hydrogel 1% w/v, blue light, 2 hours) [%]	NO release in the absence of triggers ([2]; no UV or blue light)	MBC (S. aureus 38; Staphylococcus aureus, 38, fibers in solution released from hydrogel 11, S. aureus, 24 hours, read-out: minimum bactericidal concentration (MBC)) [µM]	bacteria reduction (S. aureus 38; free compound (not hydrogel-formed) at 62 μM, S. aureus) [Log10 CFU/mL]
Immed.	Immed.	not soluble	–	–	O=C(Nc1ccccc1C(=O)N[C@@H](Cc1ccccc1)C(=O)N[C@@H](Cc1ccccc1)C(=O)O)c1ccc([N+](=O)[O-])c(C(F)(F)F)c1 [Compound 4, (2-(4-Nitro-3-(trifluoromethyl)benzamido)benzoyl)-L-phenylalanyl-L-phenylalanine]	more than 90%	A similar result was observed	1	7	61	1	23	does not leach NO	–	–
–	–	–	0.15 mg/mL and 221 μM	~14	NCCCNC(=O)[C@H](Cc1ccccc1)NC(=O)c1ccccc1NC(=O)c1ccc2ccccc2c1 [Compound 11]	–	–	–	–	–	–	–	–	62	< 1
